Assay: gradient 5% acetonitrile 3 min, to 50% in 2 min, to 85% in 15 min, held 3 min, 100 µL/min
Conditions: column: Zorbax Extend-C18 2.1 x 50 mm; eluents: water / acetonitrile, 0.1% formic acid
Procedure, shortened: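 Each retention time is based on an adduct peak selected computationally and verified by manual inspection. Measurements used HPLC–quadrupole time-of-flight mass spectrometry in positive and negative ionization mode on mixtures of ~100 pure standards. Chromatography ran on a Zorbax Extend-C18 column (2.1 × 50 mm, 1.8 μm) at 100 μL/min with water and acetonitrile, each containing 0.1% formic acid, and dead and dwell volumes of 40 μL and 900 μL.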

Row | Structure (SMILES) | RP-LC retention time [s]
1 | CC(C)n1cnnc1CC1CN(C(=O)Nc2cc(F)cc(F)c2)C1 | 667
2 | CCCN(CC1CCOC1)S(=O)(=O)c1cc(F)ccc1OC (stereo not given) | 868
3 | O=C(Nc1nnc(Cc2ccccc2)s1)C1CC(=O)N(c2n[nH]c3ccccc23)C1 (stereo not given) | 730
4 | Cn1ncc2c(N3CCCCC3)nc(C(=O)N3CCN(c4ccccc4Cl)CC3)nc21 | 1030
5 | COc1ccc(C(=O)N2CCC(COc3ccc(C(=O)NC(C)C)cc3)CC2)cc1F | 834
6 | COc1cc(NC(=O)Cn2nc(C(=O)N3CCCC3)c3ccccc32)cc(OC)c1 | 641
7 | COc1cccc(NC(=O)Cn2c(=O)n(-c3ccccc3)c(=O)c3c2cc(C)n3C)c1 | 789
8 | O=C(Nc1ccc2c(c1)OCCO2)C1CCCN(C(=O)c2cc(-c3ccccn3)n[nH]2)C1 (stereo not given) | 656
9 | CCCOc1ccc(CN2C[C@@H](CO)[C@H](c3ccccn3)C2)cc1 | 578
10 | O=S(=O)(c1cccc2nsnc12)N1CCCC1c1noc(CO)n1 (stereo not given) | 682
11 | Cc1ccc(Cn2c(=O)n(CCNC(=O)c3ccoc3)c3ncccc32)cc1 | 760
12 | Cn1c(=O)n(C)c2cc(CNc3ccc(Cl)cc3)ccc21 | 892
13 | CCn1c(C(=O)N(C)C2CCCCC2)cc2c(=O)oc3ccccc3c21 | 1010
14 | O=C(NCc1ccccn1)C(=O)Nc1ccc2c(c1)OCO2 | 579
15 | COc1ccccc1Cc1noc(C2CN(C(=O)c3cc(C4CC4)on3)C2)n1 | 876
16 | c1ccc(SCc2nnc3sc(-c4cnccn4)nn23)cc1 | 774
17 | COc1ccc(OC)c(Nc2nc(NCCO)c3cnn(C)c3n2)c1 | 609
18 | O=C(Cc1cccs1)NCCOc1ccc(F)cc1 | 766
19 | COc1cc2c(c(OC)c1O)C(=O)CO2 | 642
20 | Cc1ccc(-c2noc(Cc3nnc(-c4ccc(C)cc4)o3)n2)cc1 | 1120
21 | CCN1CCCn2cc(S(=O)(=O)Nc3ccc(Cl)cc3C)cc2C1=O | 790
22 | COc1ccc(F)cc1S(=O)(=O)N1C[C@@H]2C[C@H](NC(=O)c3cccs3)[C@H]1C2 | 834
23 | CC(=O)N1CCc2cc(N3CC(C(=O)NCc4cccc(F)c4)CC3=O)ccc21 (stereo not given) | 741

Row | Structure (SMILES) | RP-LC retention time [s]
24 | N#Cc1ccc(C(=O)Nc2cccc(-c3nnc4n3CCCC4)c2)cc1 | 665
25 | Cn1ccc2c(cc(C(=O)N3CCN(c4ccccc4F)CC3)n2C)c1=O | 723
26 | O=C(CCn1nnc2cc(S(=O)(=O)N3CCCCC3)ccc21)N1CCN(c2ccccn2)CC1 | 665
27 | Cc1ccccc1-c1nnc(CSc2nnc(NC(=O)Cc3ccccc3Cl)s2)o1 | 977
28 | CCC(=O)c1cn(CC(=O)NC(C)c2ccc3c(c2)OCCCO3)c2ccccc12 (stereo not given) | 848
29 | O=C1N(c2cccc(Cl)c2)c2ncccc2S(=O)(=O)N1Cc1ccccc1 | 1100
30 | CN1C(=O)c2cccnc2Sc2cc(NC(=O)c3ccc(C(F)(F)F)cc3)ccc21 | 910
31 | NC(=O)CSc1nnc(N2CCN(C(=O)c3ccccc3[N+](=O)[O-])CC2)s1 | 567
32 | CCOc1ccc(NC(=O)Cn2nc3c(Oc4ccccc4C)nccn3c2=O)cc1 | 870
33 | CCn1c(=O)n(CC)c2cc(S(=O)(=O)c3ccc(C)cc3)c(N)cc21 | 760
34 | O=C(NCCCn1cccn1)c1c(OCC2CC2)cc(=O)n2c1CCCCC2 | 634
35 | COCc1nc(C2CCCN(C(=O)NC3CCCC3)C2)no1 (stereo not given) | 743
36 | CCc1ccc(NC(=O)Cc2nnc3c(-c4nc(C5CC5)no4)cccn23)cc1 | 805
37 | CS(=O)(=O)c1ccccc1C(=O)Nc1c2c(nn1-c1nc3ccccc3s1)CCC2 | 1060
38 | COc1cc(Cl)c(C)cc1NC(=O)C1CCCN(c2ncnc3c2nc2n3CCCCC2)C1 (stereo not given) | 996
39 | O=C(c1ccccc1OCC1CCCN(C2CCC2)C1)N1CCCC1 (stereo not given) | 615
40 | CCc1ccc(OCc2nc(CC(=O)Nc3nc(-c4ccc(C)cc4)cs3)cs2)cc1 | 1270
41 | CCn1c(=O)cc(OCC(=O)NCCN(C)Cc2ccccc2)c2ccccc21 | 617
42 | Cc1ccn2c(Nc3ccccc3C)c(-c3ccc(N4CCOCC4)cc3)nc2c1 | 746
43 | O=c1n(Cc2ccccc2F)nc2ccc(S(=O)(=O)N3CCc4ccccc4C3)cn12 | 984
44 | COc1ccc(NC(=O)CSc2nccnc2Oc2ccc(C)cc2)cc1OC | 955
45 | Cc1ccc(N(CN2CCCC2=O)C(=O)c2ccc(C)c(C)c2)cc1 | 783
46 | CC1Cc2ccccc2N1C(=O)C12CCC(C)(C(=O)O1)C2(C)C (stereo not given) | 1000

Row | Structure (SMILES) | RP-LC retention time [s]
47 | O=C(Cc1ccsc1)N1CCOc2ccc(N3CCOCC3)cc2C1 | 743
48 | CS(=O)(=O)N1CCCC(C(=O)NC2CC2)CCNC(=O)CC1 (stereo not given) | 816
49 | O=C(Nc1nccs1)c1cc(Cl)sc1Cl | 836
50 | O=C(Nc1ccccc1NC(=O)c1ccccc1C(F)(F)F)c1cccs1 | 835
51 | COCC1(O)CCOC2(CCN(Cc3ccc(F)cc3)CC2)C1 (stereo not given) | 654
52 | CCN1C(=O)C2CC3(CCN(C(=O)Nc4ccc5c(c4)OCCO5)CC3)CN2C1=O (stereo not given) | 706
53 | COc1ccc(-c2noc(Cc3nnc(-c4cccc(Br)c4)o3)n2)cc1 | 1100
54 | O=C(NCc1ccccn1)c1c2c(nc3ccccc13)C(=O)N(C1CCCCC1)C2 | 626
55 | CCOc1ccccc1-c1csc(NC(=O)Cc2csc(C)n2)n1 | 943
56 | CCCN1CCN(CCCNC(=O)C(C)n2c(=O)c(C(F)(F)F)nc3ccccc32)CC1 (stereo not given) | 622
57 | O=C(NC1CCN(c2ccc(N3CCCCCC3)nn2)CC1)c1ccc(F)c(F)c1 | 682
58 | O=C1C2C=CC=CC2=NC(=S)N1CCN1CCC(=C(c2ccc(F)cc2)c2ccc(F)cc2)CC1 (stereo not given) | 1000
59 | O=S(=O)(c1cccn2c(SCc3cccc(Cl)c3)nnc12)N1CCCC1 | 860
60 | Cc1ccc(NC(=O)N2CCCC(C)(C(=O)NCc3ccccc3C)C2)cc1Cl (stereo not given) | 1080
61 | Cc1noc(COC2CCCN(C(=O)c3ccc(Cl)s3)C2)n1 (stereo not given) | 801
62 | Cn1c(=O)sc2cc(S(=O)(=O)N3CCC(C(=O)NCCc4cccs4)CC3)ccc21 | 813
63 | CCCC1c2nccn2CCCN1C(=O)c1cc(C2CC2)[nH]n1 (stereo not given) | 596
64 | COc1cccc(-c2cn3ccn(-c4ccccc4)c(=O)c3n2)c1 | 773
65 | Cc1nc(-c2ccc(OCC(C)C)c(C#N)c2)sc1C(=O)O | 1040
66 | COc1ccccc1CNC(=O)C1CCCN(c2nnc3ccc(Cl)cn23)C1 (stereo not given) | 683
67 | O=C1CC(NC(=O)c2cnn(-c3ccccc3)n2)CN1 (stereo not given) | 603
68 | CCOC(=O)c1c(S(=O)(=O)N2CCC(C(=O)Nc3ccc(F)cc3F)CC2)c(C)n(CC)c1C | 895
69 | O=C(CCn1nnc2cc(-c3noc(Cc4ccc(F)cc4)n3)ccc21)N1CCCC1 | 860

Row | Structure (SMILES) | RP-LC retention time [s]
70 | CC(C)NC(=O)C1CCc2sc(C(=O)N3CCOCC3)cc2C1 (stereo not given) | 596
71 | COc1ccc(C(=O)N2C[C@@H](Oc3cccnc3)C[C@H]2C(=O)NC2CC2)c(OC)n1 | 602
72 | Cc1ccc(NC(=O)Cn2nc3c(Oc4cc(C)cc(C)c4)nccn3c2=O)cc1 | 871
73 | CNCc1ccc(-c2ccc(F)c(Cl)c2)o1 | 644
74 | CCOc1cccc(CNc2nc3ccncc3n(CC)c2=O)c1 | 665
75 | CCOc1ccc(-c2noc(Cn3nc(-c4ccc(C)c(C)c4)ccc3=O)n2)cc1 | 1230
76 | Cc1cccc(Nc2c(-c3nc(C)no3)cnc3nc(C)ccc23)c1 | 762
77 | O=C(CSc1nnc(-c2ccco2)o1)N1CCCc2ccccc21 | 887
78 | O=C(CCc1c(-c2ccc(Br)cc2)nc2ccccn12)NCc1ccc(F)cc1 | 701
79 | O=C(NCCc1c[nH]c2ccccc12)C1CC(=O)N(c2n[nH]c3cccc(F)c23)C1 (stereo not given) | 710
80 | COC(=O)C1=CN(c2cccc(C)c2)c2ccccc2S1(=O)=O | 849
81 | CCC1CN(C(=O)N2CCC(C(=O)NCCCN3CCCC3=O)CC2)c2ccccc2O1 (stereo not given) | 709
82 | Cc1oc2c(c1C(=O)N(C)C)CN(S(=O)(=O)Cc1ccccc1)CC2 | 740
83 | CCN(C(=O)Cn1ccn2nc(-c3ccccc3)c(CO)c2c1=O)c1ccccc1 | 838
84 | COCCNC(=O)Cc1ccc(NC(=O)c2ccc(C(C)(C)C)cc2)cc1 | 790
85 | COc1cc(OC)cc(N2C(=O)c3cc(C)nn3CC2(C)C(=O)NCc2ccc(F)cc2)c1 (stereo not given) | 829
86 | COC(=O)c1ccc(NC(=O)Cn2c(C)nc3c(sc4nc(-c5ccccc5)ccc43)c2=O)cc1 | 1020
87 | CCN1CCN(CCNC(=O)c2c(-c3ccc(Br)s3)noc2C)CC1 | 618
88 | CN(C)c1cc(-n2cccn2)ncn1 | 666
89 | COc1ccc(CNC(=O)C2(c3ccc(NC(C)=O)cc3)CCCCC2)c(OC)c1 | 841
90 | COc1ccc(C2CC(=O)N(c3ccc(C)c(F)c3)C(=O)C2)cc1 | 954
